This note sets out measurements from PubChem BioAssay (NCI).

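Values below derive from 48-hour exposures of cells grown in 96-well plates, with endpoints linearly interpolated between the two concentrations bracketing the appropriate inhibition level. At the GI50, growth is halved. TGI: total growth inhibition.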

Holding throughout (assay): inhibition of tumour cell growth, NCI panel, 48 h
Test [1] concerns K-562 leukemia.
Test [2] deals with HCC-2998 colon.
Test [3] relates to T-47D breast.
Test [4] concerns HL-60(TB) leukemia.
Test [5] relates to NCI-H226 lung.
Test [6] concerns NCI-H460 lung.
In test [7] the test system is MDA-MB-435.
Test [8] has as its system NCI-H522 lung.
Test [9] deals with SK-MEL-5 melanoma.
Test [10] has as its system COLO 205 colon.

With `Nc1nc(N)c2cc(Sc3ccc4ccccc4c3)ccc2n1`, the TGI in [1] came out at 1.88 µM; in test [2] it was 2.13 µM; in [3], 4.04 µM; in test [4], 2.77 µM; in [5], 18.1 µM; in test [6], 2.26 µM. Further, the TGI in [7] turned out to be 2.54 µM; in [8], 3.36 µM; in [9], 2.24 µM; in test [10], 2.91 µM. For the same compound, the GI50 in test [2] is 0.878 µM.
In the case of `O=[N+]([O-])c1cc([As](Br)c2ccc(O)c([N+](=O)[O-])c2)ccc1O`, the TGI was greater than 23.2 µM in test [1]; 2.72 µM in [2]; 0.557 µM in [3]; 4.63 µM in test [4]; 3.21 µM in [5]; greater than 25.6 µM in test [6]. Also, the TGI turned out to be 3.51 µM in test [7], 0.45 µM in [8], 3.1 µM in [9] and 3.25 µM in [10].
Regarding `c1ccc(-c2nc3n(c2-c2ccc4c(c2)OCO4)CCC3)nc1`, the GI50 is 5.49 µM in [1]; 10.4 µM in [2]; 7.99 µM in test [3]; 2.56 µM in test [4]; 4.54 µM in test [5]; 4.51 µM in [6]. Further, the GI50 in test [7] is 8.8 µM; in test [8] it was 8.14 µM; in test [9], 2.05 µM; in test [10] it was 9.15 µM. The TGI in [1] was greater than 25 µM; in test [2], greater than 25 µM; in [3] it was greater than 23.4 µM; in test [4], 10.7 µM; in test [5], 17 µM; in [6], 13.3 µM. The TGI in test [7] is greater than 25 µM; in [8], greater than 25 µM; in test [9], 8.86 µM; in test [10] it was greater than 25 µM.
With `O=C(NN1C(=O)CSC1c1cccc(Cl)c1)C(O)c1ccccc1` (configuration not stated), the GI50 is 27.4 µM in test [1]; 67.7 µM in [3]; 81 µM in [5]; 42.8 µM in test [6]; greater than 100 µM in test [7]; 67.9 µM in test [8]. In addition, the GI50 in [9] and in test [10] was greater than 100 µM each time. Also, the TGI in [1], in test [3], in test [5], in test [6], in test [7] and in [8] was greater than 100 µM in each case. Also, the TGI in test [9] and in test [10] was greater than 100 µM throughout.
In the case of `NC(=O)c1cccnc1`, the GI50 in test [1], in [3], in test [4], in test [5], in [6] and in test [7] was greater than 100 µM throughout. In addition, the GI50 in [8] and in test [10] was greater than 100 µM each time. Besides, the TGI in [1], in test [3], in [4], in [5], in [6] and in [7] was greater than 100 µM in each case. Moreover, the TGI in test [8] and in [10] was greater than 100 µM throughout.
As to `CO[C@H]1/C=C/O[C@@]2(C)Oc3c(C)c(O)c4c(O)c(c(/C=N/N5CCN(C)CC5)c(O)c4c3C2=O)NC(=O)/C(C)=C\C=C\[C@H](C)[C@H](O)[C@@H](C)[C@@H](O)[C@@H](C)[C@H](OC(C)=O)[C@@H]1C`, the TGI in test [1], in test [2], in test [3], in [6], in [7] and in [9] was greater than 100 µM in each case. This compound also registered a TGI in test [10] greater than 100 µM.
`Cc1ccc(S(=O)(=O)c2nc(-c3ccccc3)oc2S(C)(=O)=O)cc1`: the GI50 is 1.59 µM in [1]; 17.9 µM in test [2]; 1.87 µM in test [3]; 2 µM in test [4]; 3.31 µM in [5]; 13.3 µM in [6]. The GI50 is 2.11 µM in [7], 1.52 µM in [8] and 1.7 µM in test [10]. Besides, the TGI amounted to 4.3 µM in test [1]; 32.2 µM in test [2]; 3.93 µM in test [3]; 6.43 µM in test [4]; 15 µM in test [5]; 27.8 µM in test [6]. Further, the TGI turned out to be 4.58 µM in test [7], 3.3 µM in test [8] and 3.21 µM in test [10].
For `CC(/C=C/C(O)=C1/C(=O)CNC1=O)=C\[C@@H](C)[C@H]1O[C@@]2(C)O[C@H](C(=O)[C@@H]3O[C@@]32C)[C@@H]1C`, the TGI was greater than 100 µM in [1]; 37.3 µM in test [3]; 80.6 µM in [4]; 54.4 µM in [5]; 83.1 µM in [7]; 40.4 µM in test [9]. Moreover, the TGI in test [10] was 43.6 µM.
Turning to `CCCc1nc(Cl)nc(Cl)c1Cl`, the TGI in [1] came out at 0.118 µM; in test [2], 4.57 µM; in test [3], 4.49 µM; in test [4] it was 0.359 µM; in test [5], 8.97 µM; in test [6], 5.66 µM. Besides, the TGI was found to be 1.41 µM in test [7], 1.26 µM in test [8] and 3.21 µM in test [9].
In the case of `CCN1[C@@H](C(=O)NC23CCC(C(=O)O)(CC2)CC3)[C@H](c2cccc(Cl)c2F)[C@]2(C(=O)Nc3cc(Cl)ccc32)C12CCCCC2`, the GI50 in test [1] is 2.98 µM; in [2], 2.39 µM; in test [3] it was 3.13 µM; in test [4], 1.96 µM; in test [6], 0.0909 µM; in test [7] it was 2.92 µM. In addition, the GI50 in test [8] is 2.62 µM; in test [9], 1.39 µM; in test [10], 3.02 µM. Moreover, the TGI in test [1] is greater than 100 µM; in test [2], 6.89 µM; in test [3], 19.4 µM; in [4], 6 µM; in test [6], 1.45 µM; in [7], 10.7 µM. Also, the TGI in [8] is 8.24 µM; in test [9] it was 2.75 µM; in [10], 10.6 µM.
